The results in this text go back to PubChem BioAssay AID2305 (GlaxoSmithKline (GSK), 2010).

Structures are written as SMILES.

In this experiment the test system is P. falciparum 3D7 growth, pLDH absorbance. The experiment can be described thus: blood-stage malaria parasite growth potency – strain 3D7, dose response (AID 2305).
With `CN(C)c1ccc(-c2ccc(C(=O)NC3CCN(Cc4ccccc4F)CC3)s2)cc1`, the IC50 was found to be 1400 nM.
Take `CCCCc1ccc(NC(=O)Nc2cccc(CCNCc3ccccc3)c2)cc1`: the IC50 amounted to 880 nM.
Then `CN(C(=O)C(C)(C)Oc1ccc(Cl)cc1)C1CCN(CCCCCNC(=O)/C=C/c2ccc(Cl)c(Cl)c2)CC1`, with 920 nM.
To `CCC(C)CN1CCC(N(C)c2cc(NC(=O)c3cccc(C)c3)ccn2)CC1` (stereo not drawn) belongs 940 nM.
To `Cc1ccc(O)cc1Nc1ccnc2cc(-c3csc(CN(C)CCN(C)C)n3)ccc12` belongs 790 nM.
Take `O=C1C(c2ccccc2)=C(Nc2cccc(OC(F)(F)C(F)F)c2)c2ccccc21`: the IC50 was determined as 180 nM.
`C=C[C@]1(C)C[C@@H](OC(=O)c2cncn(COC)c2=O)[C@]2(C)[C@H](C)CC[C@]3(CCC(=O)[C@H]32)[C@@H](C)[C@@H]1O` came in with an IC50 of 880 nM. Compared with the last compound, the IC50 is about 4.9-fold higher.
To `CCCN(CCC)CCOc1ccc(C(O)(C#CC(O)(c2ccc(OCCN(CCC)CCC)cc2)c2cccc(Cl)c2)c2cccc(Cl)c2)cc1` (stereo not drawn) belongs 790 nM.
`COc1cccc(C2(NC[C@@H](O)[C@H](Cc3ccccc3)NC(=O)c3ccccc3)CCCCC2)c1` returned an IC50 of 730 nM. This IC50 and that of the compound before are within 1.5-fold of each other.
To `O=C(Nc1ccc(F)c(F)c1)c1ccc(CN2CCCN(Cc3cccc(F)c3)CC2)cc1` belongs 1120 nM.
To `Cc1ccccc1N1CCN(c2ccc(C(=O)NC(C)C)cn2)CC1` belongs 900 nM; to `COc1ccc(C(=O)N2CCc3cc4nccc(N5CCN6CCC[C@H]6C5)c4cc32)cc1`, 950 nM; to `N#Cc1ccc2[nH]cc(-c3cn4cc(SC5CCCC5)ccc4n3)c2c1`, 940 nM.
On to `O=C(/C=C/c1ccc(Cl)c(Cl)c1)NC1CCC(CN2CCC(c3c[nH]c4cc(O)ccc34)CC2)CC1` (stereo not drawn), for which the concentration for half-maximal inhibition (IC50) was 810 nM.
In turn, `CCOC(=O)CNC(=O)N1CCN(C(=O)NCC(=O)OCC)CC1` returned an IC50 of 850 nM.
`CC(C)Cn1c(Sc2ccc(C#N)c([N+](=O)[O-])c2)nnc1-c1cccc(Cl)c1`: the IC50 was 300 nM.
The compound `CCCCn1c(C(C)Oc2ccc(Cl)cc2Cl)nc2cc(S(N)(=O)=O)ccc21` (stereo not drawn) came in with an IC50 of 710 nM.
The compound `c1ccc2cc3c(Nc4ccc(N5CCCCCC5)cc4)ccnc3cc2c1` gave an IC50 of 940 nM.
To `COc1ccc2c(NN=Cc3ccncc3)cc(C)nc2c1` belongs 810 nM; to `CCN1CCC(N(Cc2ccc(-c3ccc(C(F)(F)F)cc3)cc2)C(=O)Cn2nc(C)c(=O)cc2SCc2ccc(F)cc2)CC1`, 1010 nM.
Turning to `COC(=O)c1cccc(NC(=O)NC2CCN(c3ccnc(Nc4ccc(F)cc4)n3)C2)c1` (stereo not drawn), the IC50 came to 500 nM. Against the preceding compound, the IC50 is about 2-fold lower.
The compound `CCC(c1ccccc1)c1nn2c(-c3cccs3)nnc2s1` (stereo not drawn) registered an IC50 of 170 nM. Compared with the last compound, the IC50 is about 2.9-fold lower.
`Cc1ccc(NC(=O)c2ccc(N3CCC(c4ccccc4C)CC3)nc2)cc1` returned an IC50 of 1400 nM.
Regarding `O=C(C=Cc1ccc(Cl)c(Cl)c1)NCCCCCN1CCC(CCNC(=O)C(c2ccccc2)c2ccccc2)CC1`, the IC50 was determined as 1010 nM. This IC50 and that of the compound before are within 1.5-fold of each other.
In turn, `CCCCC1(NC(=O)[C@H](CC(C)C)Nc2ccc(C#N)c3ccccc23)CCCCC1` had an IC50 of 800 nM.
The compound `COc1ccc2nccc([C@@H](O)CN3CCC(CO)(NCc4cc5ccccc5o4)CC3)c2c1` displayed an IC50 of 1370 nM.
`Cc1[nH]c(C)c([N+](=O)[O-])c(=O)c1-c1ccc(Oc2ccc(OC(F)(F)F)cc2)cc1` displayed a 50% inhibitory concentration (IC50) of 250 nM. Compared with the last compound, the IC50 is about 5.5-fold lower.
To `NCCCN(Cc1ccc(Cl)c(Cl)c1)C(=O)Nc1ccc(Cl)c(Cl)c1` belongs 900 nM; to `Cn1nc(-c2ccc(NC(=O)Nc3cc(C(F)(F)F)ccc3F)c(F)c2)c2cnc(NCCCN3CCOCC3)nc21`, 600 nM.
`O=c1c(Br)c(C(F)(F)F)[nH]c2ccc(Oc3ccccc3)cc12` yielded an IC50 of 1100 nM.
In turn, `Cc1c(Cn2nc(Cl)c(N3CCNCC3)cc2=O)cccc1NC(=O)Nc1ccc(-c2ccccc2)cc1` had a half-inhibitory concentration (IC50) of 1380 nM.
Compound `COc1ccc(NS(=O)(=O)c2ccccc2Br)cc1N1CCN(C)CC1` gave an IC50 of 970 nM.
As for `CCN1CCN(Cc2ccc(-c3ccc(NS(=O)(=O)c4cccc5cccnc45)cc3)cc2)CC1`, the IC50 was 920 nM.
In turn, `COc1ccc(NC(=O)c2cccc(Br)c2)cc1N1CCN(CCCCCCCN2CCN(c3cc(NC(=O)c4cccc(Br)c4)ccc3OC)CC2)CC1` gave an IC50 of 180 nM.
Compound `O=C(NCCCCCN1CCC(c2c[nH]c3ccccc23)CC1)Nc1cccc(Cl)c1` yielded an IC50 of 1020 nM.
In turn, `C(=Cc1nc2ccccc2s1)c1ccc2c(c1)OCCO2` displayed an IC50 of 390 nM.
On to `CCN1CCN(c2cc(C)c3cc(NC(=O)c4cccc([N+](=O)[O-])c4)ccc3n2)CC1`, for which the IC50 stood at 520 nM.
For `Cc1ccc2c(NN=Cc3ccccc3[N+](=O)[O-])cc(C)nc2c1`, the half-inhibitory concentration (IC50) came out at 420 nM. This IC50 and that of the compound before are within 1.5-fold of each other.
With `CN1CCN(CC(=O)Nc2cccc(-c3ccc(-c4nc5ccc(F)cc5[nH]4)cc3)c2)CC1`, the IC50 stood at 700 nM.
The compound `CC1(C)CCCN(c2ncc(-c3cccc(CNCc4ccccc4O)c3)cn2)C1` gave an IC50 of 890 nM. The IC50 values of the last two compounds are within 1.5-fold of each other.
`CCOC(=O)c1ccc(NC(=O)N[C@@H](Cc2ccc(O)cc2)C(=O)NC2CCN(Cc3ccc4c(c3)OCO4)CC2)cc1` displayed an IC50 of 1060 nM. This IC50 and that of the compound before are within 1.5-fold of each other.
To `CCN(CCCN1CCCCC1)c1cc(C)nc(Nc2ccc(F)c(C(F)(F)F)c2)n1` belongs 150 nM.
Consider `Cc1cnc(N2CCN(CCCN3CCCC3)CC2)nc1Oc1ccc(-n2ccnc2)cc1`, for which the IC50 was 900 nM.
The compound `c1ccc(Nc2nc(-c3ccccn3)cs2)nc1` had an IC50 of 1150 nM.
Take `O=C(O)c1ccc(-c2c[nH]c3ncc(-c4ccc(Cl)cc4)cc23)cc1`: the IC50 is 730 nM.
`O=C(NCc1cccc(F)c1)Nc1ccc(-c2ccc(-c3nc4ccc(C(F)(F)F)cc4[nH]3)cc2)cc1`: the IC50 was 770 nM.
For `COc1ccccc1CCNc1nc(C)cc(N[C@@H](CC(C)C)C(=O)NCc2cccc(F)c2)n1`, the IC50 was 970 nM. The IC50 values of the last two compounds are within 1.5-fold of each other.
Regarding `Nc1nc(N)c2c(ccc3c2ccn3CCCC2CCCNC2)n1` (stereo not drawn), the IC50 is 900 nM.
To `COc1cc2c(cc1OCCN1CCC(N)CC1)N(C(=O)/C=C/c1ccccc1Cl)CC2` belongs 1120 nM; to `CC(C)(C)c1ccc(NC(=O)c2cccc(CN3CCCN(Cc4ccsc4)CC3)c2)cc1`, 760 nM; to `Cc1ccc(Nc2nc3cc(N(C)c4ccnc(Nc5cccc(CCS(C)(=O)=O)c5)n4)ccc3n2C)cc1`, 340 nM.
In turn, `COc1cc(NCCCNCC2c3ccccc3Oc3ccccc32)nc2ccccc12` gave an IC50 of 330 nM. The IC50 values of the last two compounds are within 1.5-fold of each other.
With `O=C(Nc1ccc(-c2nc3ccccc3[nH]2)cc1)c1ccc(N2CCOCC2)c([N+](=O)[O-])c1`, the IC50 was 790 nM.
Take `CCOc1ccc(Nc2cc(C)nc(Nc3ccc(OCC)cc3)n2)cc1`: the IC50 turned out to be 870 nM. The IC50 values of the last two compounds are within 1.5-fold of each other.
In turn, `CCOc1c(CCNCCCCNCCc2ccc3ccccc3c2OCC)ccc2ccccc12` gave an IC50 of 600 nM.
With `CN1CCC(C(=O)N(Cc2ccc(-c3ccc(CNCCc4ccccc4)cn3)cc2)Cc2cccc(F)c2)CC1`, the IC50 came out at 940 nM.
Turning to `Cn1cc(C(=O)Nc2cccc(-c3cccc(-c4nc5ccc(F)cc5[nH]4)c3)c2)n(C)c1=O`, the half-maximal inhibitory concentration (IC50) amounted to 390 nM.
In turn, `Cc1cc2c3c(N)nc(N)nc3ccc2n1C(C)C` had an IC50 of 10 nM.
`O=C(Nc1cc(Cl)ccc1-n1cncn1)C1(c2ccccc2)CC1` gave an IC50 of 450 nM. This IC50 is about 45-fold higher than that of the compound before.
As for `C=CCOc1ccc2ccccc2c1CNCCCCCCNCc1c(OCC=C)ccc2ccccc12`, the half-maximal inhibitory concentration (IC50) was 860 nM.
Turning to `COc1ccc(CN2CCCC(OC(c3ccc(F)cc3)c3ccc(F)cc3)C2)c(O)c1` (stereo not drawn), the IC50 came to 610 nM. This IC50 and that of the compound before are within 1.5-fold of each other.
`CC(C)[C@H](NCC(=O)c1ccccc1)C(=O)O` returned an IC50 of 780 nM.
Then `Cc1sc(N2CCCCC2)nc1C(=O)Nc1ccc(F)cc1C(F)(F)F`, with 1150 nM; and `Nc1ccc2[nH]cc(C3CCN(CC4CCN(C(=O)/C=C/c5ccc(Cl)c(Cl)c5)CC4)CC3)c2n1`, with 700 nM.
`COc1cccc(C2(c3cccc(OC)c3)N=C(N)N(CCCc3ccccc3)C2=O)c1` came in with an IC50 of 260 nM.
To `Cc1[nH]c(C)c(-c2ccc(Cl)cc2Cl)c(=O)c1Br` belongs 1010 nM; to `O=C(CC1NC(=O)c2ccccc21)Nc1ccc(-c2ccc(-c3nc4ccc(C(F)(F)F)cc4[nH]3)cc2)cc1` (stereo not drawn), 470 nM.
On to `COc1ccc(NC(=O)Nc2ccc(Nc3nc(C)cc(N4CCCC4)n3)cc2)cc1`, for which the IC50 is 140 nM.
Regarding `CCOc1cc(C)ccc1C1CCN(CCN2CCC(CNC(=O)c3ccc(-c4ccc(C(F)(F)F)cc4)cc3)CC2)CC1`, the IC50 came out at 700 nM.
On to `CN1CCCN(Cc2ccc(-c3cccc(NC(=O)c4cccc(C#N)c4)c3)cc2)CC1`, for which the IC50 was determined as 650 nM.
Take `CN(C(=O)/C=C/c1cc(C(F)(F)F)ccc1F)C1CCN(CCCCCNC(=O)/C=C/c2ccc(Cl)c(Cl)c2)CC1`: the 50% inhibitory concentration (IC50) was 290 nM.
`O=C(NCc1ccco1)c1ccc(S(=O)(=O)c2ccc(Cl)cc2)cc1`: the IC50 worked out at 450 nM.
`COCCn1c(SC(C)C(=O)Nc2cc(C(F)(F)F)ccc2Cl)nc2ccccc2c1=O` (stereo not drawn): the IC50 is 630 nM. The IC50 values of the last two compounds are within 1.5-fold of each other.
To `COc1ccccc1-c1cccc2c(NC(=O)Nc3ccc4nccc(N5CCN(C)CC5)c4c3)ccnc12` belongs 1000 nM; to `CN1CCN(Cc2nc(-c3ccc4c(Nc5ccc(Oc6ccccc6)cc5)ccnc4c3)cs2)CC1`, 310 nM.
For the compound `c1cc(CNCC2CCN(CC3CCCCC3)CC2)cc(-n2ccnc2)c1`, the IC50 was determined as 540 nM. This IC50 lies about 1.7-fold higher than the previous one.
Then `Cc1cccc2[nH]c(-c3ccc(-c4ccc(CN5CCCCC5)cc4)cc3)nc12`, with 590 nM; and `CCOc1cc(C(=O)NCCCN2CCCCC2C)ccc1-c1nc2ccc(Cl)cc2[nH]1` (stereo not drawn), with 1070 nM.
In turn, `O=C(Nc1cccc(C(F)(F)F)c1)NC1CCN(c2ccnc3ccccc23)C1` (stereo not drawn) had an IC50 of 290 nM. Compared with the last compound, the IC50 is about 3.7-fold lower.
For `CCCCCCCCNCC(O)c1cc(-c2ccc(Cl)cc2)nc2cc(C)ccc12` (stereo not drawn), the IC50 was found to be 80 nM.
Compound `CS(=O)(=O)c1ccc(CNCc2ccc(-c3ccc(-c4nc5ccc(F)cc5[nH]4)s3)cc2)cc1` registered an IC50 of 270 nM.
Turning to `NCc1cccc(-c2ccc(CNC3CCN(Cc4ccccc4)CC3)cc2)c1`, the IC50 was found to be 1700 nM. Against the preceding compound, the IC50 is about 6.3-fold higher.
Consider `CN(C)c1ccc(-c2nc3ccc(N)cc3[nH]2)cc1`, for which the IC50 was 240 nM.
`Cc1cccc(Cl)c1S(=O)(=O)N1CCCCC(c2ccc(C(F)(F)F)cc2)=N1` displayed an IC50 of 220 nM.
For `CC1(C)N=C(N)N=C(N)N1OCCCO`, the IC50 amounted to 220 nM. This counts as sub-micromolar.
Then `CN(C)c1ccc(N2C(N)=NC(N)=NC23CCCC3)cc1`, with 930 nM; and `CCCc1cc(NCc2ccncc2)nc(Nc2ccc(F)cc2)n1`, with 1120 nM.
As to `O=C(NCC1CCC(C(=O)NCc2cccc(C(F)(F)F)c2)CC1)c1ccc(O)c(-c2ccc(Cl)c(Cl)c2)c1` (stereo not drawn), the IC50 worked out at 710 nM.
